According to US7745646B2, “Bicyclic heteroaryl inhibitors of PDE4” (Kalypsys, Inc., priority 2006, dated 2010):

Biological target: T1, PDE4B (Homo sapiens, UniProt Q07343)
T1 construct: hex-histidine (His6) (N); made in house
Assay: Novel coupled PDE/AK bioluminescent assay, PDE4B inhibition
Format: biochemical
Conditions: PDE4B catalytic domain
Source text: We developed a novel coupled PDE/AK bioluminescent high-throughput assay to measure the activity of phosphodiesterases. In the PDE/AK assay, the AMP produced from the hydrolysis of cAMP by phosphodiesterase is converted to adenosine diphosphate (ADP) by the phosphotransferase activity of adenylate kinase (also known as ADK or myokinase). Adenylate kinase will catalyze the conversion of 1 mole of AMP and 1 mole of ATP into 2 moles of ADP. Thus the conversion of AMP to ADP will result in the subsequent loss of ATP. The decrease in ATP concentration can be monitored as light output using luciferase in a reaction that requires ATP to produce light. The PDE/AK assay uses luciferase, which catalyzes the production of light from ATP present in the reaction mix. The amount of emitted light is inversely proportional to the level of AMP present in the reaction. Test compounds are incubated with the phosphodiesterases and phosphodiesterase inhibitors will decrease the rate of cAMP hydrolysis and decrease the subsequent production of AMP.
A novel coupled PDE/AK assay was utilized to measure the inhibitory activity of compounds on PDE isoforms. The catalytic domain of PDE4B was fused to an amino-terminus hex-histidine affinity tag and purified. PDE4B enzyme was incubated with compounds for 10 minutes. Cyclic AMP substrate, ATP and adenylate kinase were then added to the PDE enzyme mix and incubated for 45 minutes at room temperature. A commercial ATP detection assay, Perkin Elmer's easyLite ATP detection reagent, was then added to measure the relative amount of ATP present in the reaction. After 10 minute incubation, the luminescent signal was quantitated with either the Perkin Elmer Viewlux or Molecular Devices Acquest or Analyst.

T1 sequence (Q07343 330-659 limits assumed, species assumed): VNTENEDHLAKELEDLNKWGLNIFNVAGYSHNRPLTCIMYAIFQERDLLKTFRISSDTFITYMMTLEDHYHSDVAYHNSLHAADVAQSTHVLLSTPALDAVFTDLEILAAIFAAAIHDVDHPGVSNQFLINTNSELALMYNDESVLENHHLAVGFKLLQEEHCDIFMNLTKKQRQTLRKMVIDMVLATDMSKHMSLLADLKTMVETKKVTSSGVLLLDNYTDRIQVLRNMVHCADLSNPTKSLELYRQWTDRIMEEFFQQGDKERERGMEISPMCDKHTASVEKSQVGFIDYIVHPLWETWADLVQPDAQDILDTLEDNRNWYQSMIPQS

IC50 [nM] | Compound
< 1000 | COc1ccc2c(Nc3c(Cl)cncc3Cl)cc(=O)oc2c1OCCCCCc1nn[nH]n1 [Example 63, 8-(5-(2H-Tetrazol-5-yl)pentyloxy)-4-(3,5-dichloropyridin-4-ylamino)-7-methoxy-2H-chromen-2-one]
< 1000 | COc1ccc2c(Nc3c(C)cncc3C)cc(=O)oc2c1OC1CCCC1 [Example 12, 8-(Cyclopentyloxy)-4-(3,5-dimethylpyridin-4-ylamino)-7-methoxy-2H-chromen-2-one]
< 1000 | COc1ccc2c(Cc3c(Cl)cncc3Cl)cc(=O)oc2c1OC1CCCC1 [Example 2, 8-(Cyclopentyloxy)-4-[(3,5-dichloropyridin-4-yl)methyl]-7-methoxy-2H-chromen-2-one]
< 1000 | COc1ccc2c(Nc3c(Cl)cncc3Cl)cc(=O)oc2c1OCCCCCO [Example 72, 4-(3,5-Dichloropyridin-4-ylamino)-8-(5-hydroxypentyloxy)-7-methoxy-2H-chromen-2-one]
< 1000 | COc1ccc2c(Nc3c(Cl)cncc3Cl)cc(=O)oc2c1OCCCCCC(=O)N[C@@H](C)C(=O)O [Example 97, (S)-2-(6-(4-(3,5-Dichloropyridin-4-ylamino)-7-methoxy-2-oxo-2H-chromen-8-yloxy)hexanamido)propanoic acid]
< 1000 | COc1ccc2c(Nc3c(Cl)cncc3Cl)cc(=O)oc2c1OC[C@@H]1OC(=O)[C@H]2OC(C)(C)O[C@@H]12 [Example 50, 4-(3,5-Dichloropyridin-4-ylamino)-8-(((3aS,4S,6aS)-2,2-dimethyl-6-oxotetrahydrofuro[3,4-d][1,3]dioxol-4-yl)methoxy)-7-methoxy-2H-chromen-2-one]
< 1000 | COc1ccc2c(Nc3c(Cl)cncc3Cl)cc(=O)oc2c1OCCCCCCCCN(C)C [Example 81, 4-(3,5-Dichloropyridin-4-ylamino)-8-(8-(dimethylamino)octyloxy)-7-methoxy-2H-chromen-2-one]
< 1000 | COc1ccc2c(Nc3c(Cl)cncc3Cl)cc(=O)oc2c1OCCCCCC(=O)NCC(=O)O [Example 96, 2-(6-(4-(3,5-Dichloropyridin-4-ylamino)-7-methoxy-2-oxo-2H-chromen-8-yloxy)hexanamido)acetic acid]
> 1000 | COc1ccc2c(Nc3c(Cl)cncc3Cl)cc(=O)oc2c1OCC(=O)O [Example 49, 2-(4-(3,5-Dichloropyridin-4-ylamino)-7-methoxy-2-oxo-2H-chromen-8-yloxy)acetic acid]
< 1000 | COc1ccc2c(Nc3c(Cl)cncc3Br)cc(=O)oc2c1OC1CCCC1 [Example 11, 4-(3-Bromo-5-chloropyridin-4-ylamino)-8-(cyclopentyloxy)-7-methoxy-2H-chromen-2-one]
< 1000 | COc1ccc2c(NCC(=O)NO)cc(=O)oc2c1OC1CCCC1 [Example 10, 2-(8-(Cyclopentyloxy)-7-methoxy-2-oxo-2H-chromen-4-ylamino)-N-hydroxyacetamide]
< 1000 | COc1ccc2c(Nc3c(Cl)cncc3Cl)cc(=O)oc2c1OCc1ccc([N+](=O)[O-])cc1 [Example 35, 4-(3,5-Dichloropyridin-4-ylamino)-7-methoxy-8-(4-nitrobenzyloxy)-2H-chromen-2-one]
< 1000 | COc1ccc2c(Nc3c(Cl)cncc3Cl)cc(=O)oc2c1OCCCCCOC(C)=O [Example 61, 5-(4-(3,5-Dichloropyridin-4-ylamino)-7-methoxy-2-oxo-2H-chromen-8-yloxy)pentyl acetate]
< 1000 | COc1ccc2c(Nc3c(Cl)cncc3Cl)cc(=O)oc2c1OCCCCCCCN(C)C [Example 80, 4-(3,5-Dichloropyridin-4-ylamino)-8-(7-(dimethylamino)heptyloxy)-7-methoxy-2H-chromen-2-one]
< 1000 | COc1ccc2c(Nc3c(Cl)cncc3Cl)cc(=O)oc2c1OCCCCCN(C)C [Example 31, 4-(3,5-Dichloropyridin-4-ylamino)-8-(5-(dimethylamino)pentyloxy)-7-methoxy-2H-chromen-2-one]
> 1000 | COc1ccc2c(Nc3c(Cl)cncc3C(=O)O)cc(=O)oc2c1OC1CCCC1 [Example 22, 5-Chloro-4-(8-(cyclopentyloxy)-7-methoxy-2-oxo-2H-chromen-4-ylamino)nicotinic acid]

IC50 [nM] | Compound
< 1000 | COc1ccc2c(Nc3c(Cl)cccc3Cl)cc(=O)oc2c1OC1CCCC1 [Example 1, 8-(Cyclopentyloxy)-4-(2,6-dichlorophenylamino)-7-methoxy-2H-chromen-2-one]
< 1000 | COc1ccc2c(Nc3c(Cl)cncc3Cl)cc(=O)oc2c1OCCCCCC(=O)NO [Example 84, 6-(4-(3,5-Dichloropyridin-4-ylamino)-7-methoxy-2-oxo-2H-chromen-8-yloxy)-N-hydroxyhexanamide]
> 1000 | COc1ccc2c(Nc3c(Cl)cncc3Cl)c(O)c(=O)oc2c1OC1CCCC1 [Example 4, 8-(Cyclopentyloxy)-4-(3,5-dichloropyridin-4-ylamino)-3-hydroxy-7-methoxy-2H-chromen-2-one]
< 1000 | COc1ccc2c(Nc3c(Cl)cccc3C(F)(F)F)cc(=O)oc2c1OC1CCCC1 [Example 17, 4-(2-Chloro-6-(trifluoromethyl)phenylamino)-8-(cyclopentyloxy)-7-methoxy-2H-chromen-2-one]
< 1000 | COc1ccc2c(Nc3c(Cl)cncc3Cl)cc(=O)oc2c1OCC(N)=O [Example 56, 2-(4-(3,5-Dichloropyridin-4-ylamino)-7-methoxy-2-oxo-2H-chromen-8-yloxy)acetamide]
< 1000 | COc1ccc2c(Nc3c(Cl)cncc3Cl)cc(=O)oc2c1OCCCCCOP(=O)(O)O [Example 104, 5-(4-(3,5-Dichloropyridin-4-ylamino)-7-methoxy-2-oxo-2H-chromen-8-yloxy)pentyl dihydrogen phosphate]
< 1000 | CCOC(=O)COc1c(OC)ccc2c(Nc3c(Cl)cncc3Cl)cc(=O)oc12 [Example 46, Ethyl 2-(4-(3,5-dichloropyridin-4-ylamino)-7-methoxy-2-oxo-2H-chromen-8-yloxy)acetate]
< 1000 | COc1ccc2c(Nc3c(Cl)cncc3Cl)cc(=O)oc2c1OCC1CCCC1 [Example 40, 8-(Cyclopentylmethoxy)-4-(3,5-dichloropyridin-4-ylamino)-7-methoxy-2H-chromen-2-one]
< 1000 | COc1ccc2c(Nc3c(Cl)cncc3Cl)cc(=O)oc2c1OCCCCCC(N)=O [Example 78, 6-(4-(3,5-Dichloropyridin-4-ylamino)-7-methoxy-2-oxo-2H-chromen-8-yloxy)hexanamide]
> 1000 | COc1ccc2c(NCC(N)=O)cc(=O)oc2c1OC1CCCC1 [Example 9, 2-(8-(Cyclopentyloxy)-7-methoxy-2-oxo-2H-chromen-4-ylamino)acetamide]
< 1000 | COc1ccc2c(Nc3ccccc3Cl)cc(=O)oc2c1OC1CCCC1 [Example 19, 4-(2-Chlorophenylamino)-8-(cyclopentyloxy)-7-methoxy-2H-chromen-2-one]
< 1000 | COc1ccc2c(Nc3c(Cl)cncc3Cl)cc(=O)oc2c1OCCCCCCC(=O)O [Example 65, 7-(4-(3,5-Dichloropyridin-4-ylamino)-7-methoxy-2-oxo-2H-chromen-8-yloxy)heptanoic acid]
< 1000 | COc1ccc2c(Nc3c(Cl)cncc3Cl)cc(=O)oc2c1OCCCCCN1CCN(C)CC1 [Example 52, 4-(3,5-Dichloropyridin-4-ylamino)-7-methoxy-8-(5-(4-methylpiperazin-1-yl)pentyloxy)-2H-chromen-2-one]
< 1000 | COc1ccc2c(Nc3c(Cl)cncc3Cl)cc(=O)oc2c1OCCOCCBr [Example 62, 8-(2-(2-Bromoethoxy)ethoxy)-4-(3,5-dichloropyridin-4-ylamino)-7-methoxy-2H-chromen-2-one]
< 1000 | COc1ccc2c(Nc3c(Cl)cncc3Cl)cc(=O)oc2c1OCCCCC(=O)O [Example 43, 5-(4-(3,5-Dichloropyridin-4-ylamino)-7-methoxy-2-oxo-2H-chromen-8-yloxy)pentanoic acid]
< 1000 | CCCCCN(C)CCCCCOc1c(OC)ccc2c(Nc3c(Cl)cncc3Cl)cc(=O)oc12 [Example 91, 4-(3,5-Dichloropyridin-4-ylamino)-7-methoxy-8-(5-(methyl(pentyl)amino)pentyloxy)-2H-chromen-2-one]

Compound | IC50 [nM]
COc1ccc2c(Nc3c(Cl)cncc3Cl)cc(=O)oc2c1OCCCCO [Example 73, 4-(3,5-Dichloropyridin-4-ylamino)-8-(4-hydroxybutoxy)-7-methoxy-2H-chromen-2-one] | < 1000
COc1ccc2c(Nc3c(Cl)cncc3Cl)cc(=O)oc2c1OCCCCO[C@@H]1O[C@H](CO)[C@@H](O)[C@H](O)[C@H]1O [Example 87, 4-(3,5-Dichloropyridin-4-ylamino)-7-methoxy-8-(4-((2R,3R,4S,5S,6R)-3,4,5-trihydroxy-6-(hydroxymethyl)tetrahydro-2H-pyran-2-yloxy)butoxy)-2H-chromen-2-one] | < 1000
COc1ccc2c(Nc3c(Cl)cncc3Cl)cc(=O)oc2c1OCCCCN(C)C [Example 27, 4-(3,5-Dichloropyridin-4-ylamino)-8-(4-(dimethylamino)butoxy)-7-methoxy-2H-chromen-2-one] | < 1000
COc1ccc2c(Nc3c(Cl)cncc3Cl)cc(=O)oc2c1OCCCCBr [Example 25, 8-(4-Bromobutoxy)-4-(3,5-dichloropyridin-4-ylamino)-7-methoxy-2H-chromen-2-one] | < 1000
COc1ccc2c(Nc3c(Cl)cncc3Cl)cc(=O)oc2c1OCCCCN1CCOCC1 [Example 71, 4-(3,5-Dichloropyridin-4-ylamino)-7-methoxy-8-(4-morpholinobutoxy)-2H-chromen-2-one] | < 1000
COc1ccc2c(Nc3c(Cl)cncc3Cl)cc(=O)oc2c1OC/C=C\CO [Example 76, (Z)-4-(3,5-Dichloropyridin-4-ylamino)-8-(4-hydroxybut-2-enyloxy)-7-methoxy-2H-chromen-2-one] | < 1000
COc1ccc2c(Nc3c(Cl)cncc3Cl)cc(=O)oc2c1O[C@@H]1O[C@H](COC(C)=O)[C@@H](OC(C)=O)[C@H](OC(C)=O)[C@H]1OC(C)=O [Example 60, (2R,3R,4S,5R,6S)-2-(Acetoxymethyl)-6-(4-(3,5-dichloropyridin-4-ylamino)-7-methoxy-2-oxo-2H-chromen-8-yloxy)tetrahydro-2H-pyran-3,4,5-triyl triacetate] | < 1000
